Measurements published in PubChem BioAssay AID1963967 (Molecular Pharmacology Branch, DTP, NCI, 2024).
pIC50: −log10 of the molar value. Where “and” joins values, the source holds several entries; their conditions need not be identical. Identical values can stand only once.

Test system: 855422-203-R-J1-PDC spheroids with HUVEC/MSC, viability
Experiment: Anticancer human tumor 855422-203-R-J1-PDC patient-derived bladder carcinoma cell line growth inhibition [PI3K]
Conditions: for viability, T/C: stronger effect = lower value
Outline: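 Targeted small molecules plus PI3K inhibitors, half-log dose series from Cmax (default top 10 microM), were applied to heterotypic spheroids of cancer cells with HUVEC and MSCs. Viability indicated growth inhibition.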

[1] = curve of first compound, second compound 0.0316 µM
[2] = curve of first compound, second compound 0.1 µM
[3] = curve of first compound, second compound 0.316 µM
[4] = curve of first compound, second compound 1 µM
[5] = second compound 0.0316 µM, first compound 0.0316 µM
[6] = second compound 0.0316 µM, first compound 0.1 µM
[7] = second compound 0.0316 µM, first compound 0.316 µM
[8] = second compound 0.0316 µM, first compound 1 µM
[9] = second compound 0.0316 µM, first compound 3.16 µM
[10] = second compound 0.0316 µM, first compound 10 µM
[11] = second compound 0.1 µM, first compound 0.0316 µM
[12] = second compound 0.1 µM, first compound 0.1 µM
[13] = second compound 0.1 µM, first compound 0.316 µM
[14] = second compound 0.1 µM, first compound 1 µM
[15] = second compound 0.1 µM, first compound 3.16 µM
[16] = second compound 0.1 µM, first compound 10 µM
[17] = second compound 0.316 µM, first compound 0.0316 µM
[18] = second compound 0.316 µM, first compound 0.1 µM
[19] = second compound 0.316 µM, first compound 0.316 µM
[20] = second compound 0.316 µM, first compound 1 µM
[21] = second compound 0.316 µM, first compound 3.16 µM
[22] = second compound 0.316 µM, first compound 10 µM
[23] = second compound 1 µM, first compound 0.0316 µM
[24] = second compound 1 µM, first compound 0.1 µM
[25] = second compound 1 µM, first compound 0.316 µM
[26] = second compound 1 µM, first compound 1 µM
[27] = second compound 1 µM, first compound 3.16 µM
[28] = second compound 1 µM, first compound 10 µM
[29] = curve of first compound, second compound 3.16 µM
[30] = curve of first compound, second compound 10 µM
[31] = second compound 3.16 µM, first compound 0.0316 µM
[32] = second compound 3.16 µM, first compound 0.1 µM
[33] = second compound 3.16 µM, first compound 0.316 µM
[34] = second compound 3.16 µM, first compound 1 µM
[35] = second compound 3.16 µM, first compound 3.16 µM
[36] = second compound 3.16 µM, first compound 10 µM
[37] = second compound 10 µM, first compound 0.0316 µM
[38] = second compound 10 µM, first compound 0.1 µM
[39] = second compound 10 µM, first compound 0.316 µM
[40] = second compound 10 µM, first compound 1 µM
[41] = second compound 10 µM, first compound 3.16 µM
[42] = second compound 10 µM, first compound 10 µM
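Note: agents incubated with spheroids for one week before read-out.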
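Throughout, for viability, T/C: 100% = DMSO vehicle-treated control wells.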

SMILES: C[C@@H](NC(=O)c1ncnc(N)c1Cl)c1ncc(C(=O)Nc2cc(C(F)(F)F)c(Cl)cn2)s1 + CC(Nc1ccc2c(c1)OCCn1cc(N3C(=O)OCC3C(F)F)nc1-2)C(N)=O
- pIC50 (curve of first compound, second compound 0.00316 µM): < 5.00
- pIC50 (curve of first compound, second compound 0.01 µM): < 5.00
- pIC50 [1]: < 5.00
- pIC50 [2]: < 5.00
- pIC50 [3]: > 7.50
- pIC50 [4]: > 7.50
- viability, T/C (second compound 0.00316 µM, first compound 0.0316 µM): 106%
- viability, T/C (second compound 0.00316 µM, first compound 0.1 µM): 83%
- viability, T/C (second compound 0.00316 µM, first compound 0.316 µM): 122%
- viability, T/C (second compound 0.00316 µM, first compound 1 µM): 83.3%
- viability, T/C (second compound 0.00316 µM, first compound 3.16 µM): 116%
- viability, T/C (second compound 0.00316 µM, first compound 10 µM): 109%
- viability, T/C (second compound 0.01 µM, first compound 0.0316 µM): 99.8%
- viability, T/C (second compound 0.01 µM, first compound 0.1 µM): 86.2%
- viability, T/C (second compound 0.01 µM, first compound 0.316 µM): 85.4%
- viability, T/C (second compound 0.01 µM, first compound 1 µM): 84.9%
- viability, T/C (second compound 0.01 µM, first compound 3.16 µM): 118%
- viability, T/C (second compound 0.01 µM, first compound 10 µM): 98.4%
- viability, T/C [5]: 79.8%
- viability, T/C [6]: 85.4%
- viability, T/C [7]: 102%
- viability, T/C [8]: 83%
- viability, T/C [9]: 95.5%
- viability, T/C [10]: 69.3%
- viability, T/C [11]: 58.7%
- viability, T/C [12]: 61.5%
- viability, T/C [13]: 80%
- viability, T/C [14]: 68%
- viability, T/C [15]: 81.8%
- viability, T/C [16]: 35%
- viability, T/C [17]: 47.3%
- viability, T/C [18]: 49.1%
- viability, T/C [19]: 49.7%
- viability, T/C [20]: 54%
- viability, T/C [21]: 43.4%
- viability, T/C [22]: 23.9%
- viability, T/C [23]: 34.8%
- viability, T/C [24]: 40.4%
- viability, T/C [25]: 32.6%
- viability, T/C [26]: 33.6%
- viability, T/C [27]: 30.9%
- viability, T/C [28]: 14.1%

SMILES: CC(C)NCC(C(=O)N1CCN(c2ncnc3c2C(C)CC3O)CC1)c1ccc(Cl)cc1 (stereo not drawn) + CC(Nc1ncnc2nc[nH]c12)c1cc2cccc(Cl)c2c(=O)n1-c1ccccc1
- pIC50 [1]: 5.94
- pIC50 [2]: 5.95
- pIC50 [3]: 5.95
- pIC50 [4]: 5.95
- pIC50 [29]: 5.89
- pIC50 [30]: 6.03
- viability, T/C [5]: 114%
- viability, T/C [6]: 83.2%
- viability, T/C [7]: 83.9%
- viability, T/C [8]: 46.1%
- viability, T/C [9]: 34.5%
- viability, T/C [10]: 16.8%
- viability, T/C [11]: 103%
- viability, T/C [12]: 88.2%
- viability, T/C [13]: 70%
- viability, T/C [14]: 51.4%
- viability, T/C [15]: 34.9%
- viability, T/C [16]: 19%
- viability, T/C [17]: 101%
- viability, T/C [18]: 90.4%
- viability, T/C [19]: 75.5%
- viability, T/C [20]: 51.7%
- viability, T/C [21]: 31.9%
- viability, T/C [22]: 18.8%
- viability, T/C [23]: 88.6%
- viability, T/C [24]: 93%
- viability, T/C [25]: 81.3%
- viability, T/C [26]: 50.1%
- viability, T/C [27]: 32.8%
- viability, T/C [28]: 19.5%
- viability, T/C [31]: 88.4%
- viability, T/C [32]: 81.8%
- viability, T/C [33]: 73.1%
- viability, T/C [34]: 47.6%
- viability, T/C [35]: 40%
- viability, T/C [36]: 16.3%
- viability, T/C [37]: 85.3%
- viability, T/C [38]: 81.9%
- viability, T/C [39]: 69.8%
- viability, T/C [40]: 47.1%
- viability, T/C [41]: 30.1%
- viability, T/C [42]: 15.2%

SMILES: CC(C)NCC(C(=O)N1CCN(c2ncnc3c2C(C)CC3O)CC1)c1ccc(Cl)cc1 (stereo not drawn) + Cc1nc(NC(=O)N2CCCC2C(N)=O)sc1-c1ccnc(C(C)(C)C(F)(F)F)c1
- pIC50 [1]: 5.87
- pIC50 [2]: 5.97
- pIC50 [3]: 6.06
- pIC50 [4]: 6.73
- pIC50 [29]: > 7.50
- pIC50 [30]: > 7.50
- viability, T/C [5]: 94.8%
- viability, T/C [6]: 77.4%
- viability, T/C [7]: 80.7%
- viability, T/C [8]: 52.2%
- viability, T/C [9]: 35.9%
- viability, T/C [10]: 20%
- viability, T/C [11]: 88.6%
- viability, T/C [12]: 80.6%
- viability, T/C [13]: 67.9%
- viability, T/C [14]: 51.1%
- viability, T/C [15]: 33.7%
- viability, T/C [16]: 19.3%
- viability, T/C [17]: 85.6%
- viability, T/C [18]: 69%
- viability, T/C [19]: 68.3%
- viability, T/C [20]: 47.2%
- viability, T/C [21]: 30.8%
- viability, T/C [22]: 16.1%
- viability, T/C [23]: 58%
- viability, T/C [24]: 55%
- viability, T/C [25]: 42.4%
- viability, T/C [26]: 42.5%
- viability, T/C [27]: 24.2%
- viability, T/C [28]: 11.1%
- viability, T/C [31]: 39.8%
- viability, T/C [32]: 37%
- viability, T/C [33]: 30.7%
- viability, T/C [34]: 30.2%
- viability, T/C [35]: 17.5%
- viability, T/C [36]: 7.85%
- viability, T/C [37]: 20.2%
- viability, T/C [38]: 15.3%
- viability, T/C [39]: 17.8%
- viability, T/C [40]: 14.2%
- viability, T/C [41]: 10.5%
- viability, T/C [42]: 3.97%

SMILES: CC(=O)c1c(C)c2cnc(Nc3ccc(N4CCNCC4)cn3)nc2n(C2CCCC2)c1=O
- viability, T/C (compound 0.000316 µM): 105% (2×) and 96.8% and 106%
- viability, T/C (compound 0.001 µM): 90.8% [middle of 4 runs]
- viability, T/C (compound 0.00316 µM): 115% [middle of 4 runs]
- viability, T/C (compound 0.01 µM): 100% (2×) and 98.9% and 98.4%
- viability, T/C (compound 0.0316 µM): 99% [middle of 4 runs]
- viability, T/C (compound 0.1 µM): 83.8% [middle of 4 runs]
- pIC50 (curve of compound): < 7.00
